We go through 4 compounds from PubChem BioAssay AID1259411 (Chemical Carcinogenesis Research Information System (CCRIS), 2018).

The subject of the data set is rodent carcinogenicity bioassays, tumor incidence. The data set is described as follows: CCRIS carcinogenicity studies. Put shortly:
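Archive of carcinogenicity, mutagenicity, tumor promotion and tumor inhibition results drawn from journals, NCI reports and other sources, expert-reviewed; covers 1985-2011 and is no longer updated.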

Active and inactive are the calls of the source. How the calls were made is not given here.

With `ClC#CCl`, the carcinogen call runs as follows: (Species: MOUSE, Strain/Sex: NMRI/FEMALE, Route: INHALATION, Dose: 0, 2 PPM 6 HR/D 1 D/WK FOR 18 MO (STUDY DURATION: LIFE), Tumor Site: Type of Lesion: KIDNEY: CYSTADENOMA, LUNG: ADENOMA, HARDERIAN GLAND: CYSTADENOMA, Tumor Site: Type of Lesion: KIDNEY: CYSTADENOMA, LUNG: ADENOMA, HARDERIAN GLAND: CYSTADENOMA) “active; positive”; (Species: MOUSE, Strain/Sex: NMRI/FEMALE, Route: INHALATION, Dose: 0, 2 PPM 6 HR/D 2 D/WK FOR 18 MO (STUDY DURATION: LIFE), Tumor Site: Type of Lesion: HARDERIAN GLAND: CYSTADENOMA) “active; positive”; (Species: MOUSE, Strain/Sex: NMRI/FEMALE, Route: INHALATION, Dose: 0, 9 PPM 6 HR/D 1 D/WK FOR 12 MO (STUDY DURATION: LIFE), Tumor Site: Type of Lesion: KIDNEY: CYSTADENOMA, HARDERIAN GLAND: CYSTADENOMA) “active; positive”; (Species: MOUSE, Strain/Sex: NMRI/MALE, Route: INHALATION, Dose: 0, 2 PPM 6 HR/D 1 D/WK FOR 18 MO (STUDY DURATION: LIFE), Tumor Site: Type of Lesion: KIDNEY: CYSTADENOMA, CYSTADENOCARCINOMA, HARDERIAN GLAND: CYSTADENOMA) “active; positive”; (Species: MOUSE, Strain/Sex: NMRI/MALE, Route: INHALATION, Dose: 0, 2 PPM 6 HR/D 2 D/WK FOR 18 MO (STUDY DURATION: LIFE), Tumor Site: Type of Lesion: KIDNEY: CYSTADENOMA, HARDERIAN GLAND: CYSTADENOMA) “active; positive”; (Species: MOUSE, Strain/Sex: NMRI/MALE, Route: INHALATION, Dose: 0, 9 PPM 6 HR/D 1 D/WK FOR 12 MO (STUDY DURATION: LIFE), Tumor Site: Type of Lesion: KIDNEY: CYSTADENOMA, CYSTADENOCARCINOMA) “active; positive”. Moreover, the carcinogen call by setting is: (Species: RAT, Strain/Sex: WISTAR/FEMALE, Route: INHALATION, Dose: 0, 14 PPM 6 HR/D 2 D/WK FOR 18 MO (STUDY DURATION: LIFE), Tumor Site: Type of Lesion: KIDNEY: CYSTADENOMA, LIVER: CHOLANGIOMA, HEMOPOIETIC SYSTEM: MALIGNANT LYMPHOMA, Tumor Site: Type of Lesion: KIDNEY: CYSTADENOMA, LIVER: CHOLANGIOMA, HEMOPOIETIC SYSTEM: MALIGNANT LYMPHOMA) “active; positive”; (Species: RAT, Strain/Sex: WISTAR/MALE, Route: INHALATION, Dose: 0, 14 PPM 6 HR/D 2 D/WK FOR 18 MO (STUDY DURATION: LIFE), Tumor Site: Type of Lesion: KIDNEY: CYSTADENOMA, LIVER: CHOLANGIOMA) “active; positive”.

As to `CCOC(=O)C(C)(C)Oc1ccc(Cl)cc1`, the carcinogen call was “inactive; negative” (Species: MOUSE, Strain/Sex: CD-1/MALE,FEMALE (NEONATAL) (24-28/GROUP), Route: ORAL (GAVAGE), Dose: 0, 100, 350, 500 MG/KG BW ON D 9 AND 16 OF LIFE (STUDY DURATION: 1 YR)); “inactive; negative (slight increase in incidence of various neoplasms (harderian gland, lu” (Species: Mouse, Strain/Sex: Nontransgenic rasH2/Female (15/group), Route: Oral, Dose: 0, 250 mg/kg/day (Test material solvent: 0.5% (w/w) hydroxymethylcellulose in water), daily, by gavage for 27 wk, study, Dose: 0, 250 mg/kg/day (Test material solvent: 0.5% (w/w) hydroxymethylcellulose in water), daily, by gavage for 27 wk, study); “inactive; negative (hepatocellular neoplasms observed in matched study of male transgenic” (Species: Mouse, Strain/Sex: Nontransgenic rasH2/Male (15/group), Route: Oral, Dose: 0, 200 mg/kg/day (Test material solvent: 0.5% (w/w) hydroxymethylcellulose in water), daily, by gavage for 27 wk, study, Dose: 0, 200 mg/kg/day (Test material solvent: 0.5% (w/w) hydroxymethylcellulose in water), daily, by gavage for 27 wk, study, Tumor Site: Type of Lesion: Liver); “active; positive” (Species: RAT, Strain/Sex: F344/MALE, Route: ORAL, Dose: 0.5% IN DIET FOR UP TO 28 MO, Tumor Site: Type of Lesion: LIVER: HEPATOCELLULAR CARCINOMA); “active; positive” (Species: RAT, Strain/Sex: SPRAGUE-DAWLEY/MALE,FEMALE, Route: ORAL, Dose: 1500, 4500, 9000 PPM IN DIET, Dose: 1500, 4500, 9000 PPM IN DIET, Tumor Site: Type of Lesion: LIVER).

On to `COC1=CC(=O)C[C@@H](C)[C@]12Oc1c(Cl)c(OC)cc(OC)c1C2=O`, for which the carcinogen call by setting is: (Species: MOUSE, Strain/Sex: CD-1/MALE,FEMALE, Route: ORAL, Dose: 1% IN DIET FOR 12 TO 16 MO, Tumor Site: Type of Lesion: LIVER: HEPATOMA) “active; positive”; (Species: MOUSE, Strain/Sex: ICR/MALE, Route: SUBCUTANEOUS, Dose: 0.5, 0.5, 1.0 OR 1.0 MG SUSPENDED IN TRICAPRYLIN (3 MG/ANIMAL, TOTAL DOSE) ON DAYS 1, 7, 14 AND 21 OF AGE, Tumor Site: Type of Lesion: LIVER: HEPATOMA) “active; positive”.

As to `CCCCCCc1ccc(O)cc1O`, the carcinogen call is “inactive; negative” (Species: MOUSE, Strain/Sex: B6C3F1/FEMALE, Route: GAVAGE, Dose: 0, 62.5, 125 MG/KG IN CORN OIL 5D/WK FOR 102 WK (STUDY DURATION: 104 WK), Dose: 0, 62.5, 125 MG/KG IN CORN OIL 5D/WK FOR 102 WK (STUDY DURATION: 104 WK)); “equivocal” (Species: MOUSE, Strain/Sex: B6C3F1/MALE, Route: GAVAGE, Dose: 0, 62.5, 125 MG/KG IN CORN OIL 5D/WK FOR 102 WK (STUDY DURATION: 104 WK), Dose: 0, 62.5, 125 MG/KG IN CORN OIL 5D/WK FOR 102 WK (STUDY DURATION: 104 WK), Tumor Site: Type of Lesion: ADRENAL GLAND: PHEOCHROMOCYTOMA, HARDERIAN GLAND: ADENOMA OR CARCINOMA); “inactive; negative” (Species: RAT, Strain/Sex: F344/FEMALE, Route: GAVAGE, Dose: 0, 62.5, 125 MG/KG IN CORN OIL 5D/WK FOR 103 WK (STUDY DURATION: 104 WK), Dose: 0, 62.5, 125 MG/KG IN CORN OIL 5D/WK FOR 103 WK (STUDY DURATION: 104 WK)); “inactive; negative” (Species: RAT, Strain/Sex: F344/MALE, Route: GAVAGE, Dose: 0, 62.5, 125 MG/KG IN CORN OIL 5D/WK FOR 103 WK (STUDY DURATION: 104 WK), Dose: 0, 62.5, 125 MG/KG IN CORN OIL 5D/WK FOR 103 WK (STUDY DURATION: 104 WK)).
